In general, IC50 refers to the midpoint of a concentration-inhibition curve.

Structures can show the parent of a compound that is named as a salt.

This experiment has as its target T1, human kinase Mps-1 (Homo sapiens, UniProt P33981).
T1 construct: N-terminally GST-tagged human full length recombinant Mps-1 kinase; GST (N); purchased Invitrogen, Karslruhe, Germany PV4071
T1 sequence (P33981 1-857): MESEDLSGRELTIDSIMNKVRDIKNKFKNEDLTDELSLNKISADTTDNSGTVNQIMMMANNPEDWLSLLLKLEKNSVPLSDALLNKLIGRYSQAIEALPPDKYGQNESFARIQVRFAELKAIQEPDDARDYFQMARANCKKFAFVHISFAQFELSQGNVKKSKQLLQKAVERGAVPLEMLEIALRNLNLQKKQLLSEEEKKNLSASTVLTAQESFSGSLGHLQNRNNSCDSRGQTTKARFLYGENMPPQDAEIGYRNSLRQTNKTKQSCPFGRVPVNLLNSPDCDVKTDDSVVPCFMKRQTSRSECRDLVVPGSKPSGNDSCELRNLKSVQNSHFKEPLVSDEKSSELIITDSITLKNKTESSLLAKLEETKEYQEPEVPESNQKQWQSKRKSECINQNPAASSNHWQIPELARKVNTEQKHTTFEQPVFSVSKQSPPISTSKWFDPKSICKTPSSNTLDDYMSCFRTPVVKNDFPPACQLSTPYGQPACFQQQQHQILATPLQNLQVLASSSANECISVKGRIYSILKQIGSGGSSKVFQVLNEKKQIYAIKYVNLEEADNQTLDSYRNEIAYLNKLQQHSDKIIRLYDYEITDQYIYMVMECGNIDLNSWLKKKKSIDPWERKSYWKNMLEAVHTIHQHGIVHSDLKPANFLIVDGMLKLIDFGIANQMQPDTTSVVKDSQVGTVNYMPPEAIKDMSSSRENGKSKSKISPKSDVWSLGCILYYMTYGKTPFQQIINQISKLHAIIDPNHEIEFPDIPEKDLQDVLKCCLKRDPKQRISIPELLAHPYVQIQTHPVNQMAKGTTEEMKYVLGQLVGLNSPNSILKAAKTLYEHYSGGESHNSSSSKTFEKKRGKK
The experiment can be described thus: Mps-1 kinase assay (TR-FRET). Conditions: N-terminally GST-tagged human full length recombinant Mps-1; 10 μM ATP; 1 μM peptide substrate; 15 min pre-incubation; 60 min at 22° C. The experiment is classed as biochemical. The procedure: The human kinase Mps-1 phosphorylates a biotinylated substrate peptide. Detection of the phosphorylated product is achieved by time-resolved fluorescence resonance energy transfer (TR-FRET) from Europium-labelled anti-phospho-Serine/Threonine antibody as donor to streptavidin labelled with cross-linked allophycocyanin (SA-XLent) as acceptor. Compounds are tested for their inhibition of the kinase activity.
N-terminally GST-tagged human full length recombinant Mps-1 kinase (purchased from Invitrogen, Karslruhe, Germany, cat. no PV4071) was used. As substrate for the kinase reaction a biotinylated peptide of the amino-acid sequence […] (C-terminus in amide form, purchased from Biosynthan GmbH, Berlin) was used.
The concentration of Mps-1 in the assay was adjusted to the activity of the enzyme lot and was chosen appropriate to have the assay in the linear range, typical enzyme concentrations were in the range of about 1 nM (final conc. in the 5 μl assay volume).
The resulting mixture was incubated 1 h at 22° C. to allow the binding of the phosphorylated peptide to the anti-phospho(Ser/Thr)-Europium-antibody. Subsequently the amount of phosphorylated substrate was evaluated by measurement of the resonance energy transfer from the Europium-labelled anti-phospho(Ser/Thr) antibody to the Streptavidin-XLent. Therefore, the fluorescence emissions at 620 nm and 665 nm after excitation at 350 nm was measured in a Viewlux TR-FRET reader (PerkinElmer LAS, Rodgau-Jügesheim, Germany). The “blank-corrected normalized ratio” (a Viewlux specific readout, similar to the traditional ratio of the emissions at 665 nm and at 622 nm, in which blank and Eu-donor crosstalk are subtracted from the 665 nm signal before the ratio is calculated) was taken as the measure for the amount of phosphorylated substrate.
Background: In TR-FRET formats the signal depends on donor and acceptor labels being close together.
For `O=C(NC1CC1)c1ccc(-c2cnc3c(NCCOCCO)nc(-c4ccccc4)cn23)cc1` [Example 2-80, N-cyclopropyl-4-(8-{[2-(2-hydroxyethoxy)ethyl]amino}-6-phenylimidazo[1,2-a]pyrazin-3-yl)benzamide], the IC50 worked out at 6.2 nM.

Regarding `O=C(NC1CC1)c1ccc(-c2cnc3c(NCCCCN4CCCC4)nc(-c4ccccc4)cn23)cc1` [Example 2-45, N-cyclopropyl-4-(6-phenyl-8-{[4-(pyrrolidin-1-yl)butyl]amino}imidazo[1,2-a]pyrazin-3-yl) benzamide], the 50% inhibitory concentration (IC50) was found to be 11.2 nM.

As to `O=C(NC1CC1)c1ccc(-c2cnc3c(NCCc4ccccc4)nc(-c4ccccc4)cn23)cc1` [Example 2-7, N-cyclopropyl-4-{6-phenyl-8-[(2-phenylethyl)amino]imidazo[1,2-a]pyrazin-3-yl} benzamide], the IC50 turned out to be 25 nM.

Turning to `CC(C)(O)CNc1nc(-c2ccccc2)cn2c(-c3ccc(C(=O)NC4CC4)cc3)cnc12` [Example 1-125, N-cyclopropyl-4-{8-[(2-hydroxy-2-methylpropyl)amino]-6-phenylimidazo[1,2-a]pyrazin-3-yl}benzamide], the IC50 stood at 1.1 nM.

For the molecule `CNC(=O)c1ccc(-c2cn3c(-c4ccc(C(=O)NC5CC5)cc4)cnc3c(NCC(C)C)n2)cc1Cl` [Example 1-82, 2-chloro-4-{3-[4-(cyclopropylcarbamoyl)phenyl]-8-[(2-methylpropyl)amino]imidazo[1,2-a]pyrazin-6-yl}-N-methyl benzamide], the IC50 is 1.6 nM.

`N#Cc1cccc(CNc2nc(-c3ccccc3)cn3c(-c4ccc(C(=O)NC5CC5)cc4)cnc23)c1` [Example 2-61, 4-{8-[(3-cyanobenzyl)amino]-6-phenylimidazo[1,2-a]pyrazin-3-yl}-N-cyclopropylbenzamide]: the 50% inhibitory concentration (IC50) was 12.1 nM.

For `O=C(NC1CC1)c1ccc(-c2cnc3c(NCc4cccnc4)nc(-c4ccccc4)cn23)cc1` [Example 2-28, N-cyclopropyl-4-{6-phenyl-8-[(pyridin-3-ylmethyl)amino]imidazo[1,2-a]pyrazin-3-yl} benzamide], the IC50 came to 2.2 nM.

For the molecule `O=C(NC1CC1)c1ccc(-c2cnc3c(NCCCO)nc(-c4ccccc4)cn23)cc1` [Example 2-17, N-cyclopropyl-4-{8-[(3-hydroxypropyl)amino]-6-phenylimidazo[1,2-a]pyrazin-3-yl}benzamide], the IC50 was found to be 1.6 nM.

For the molecule `NCCCNc1nc(-c2ccccc2)cn2c(-c3ccc(C(=O)NC4CC4)cc3)cnc12` [Example 8-1, 4-{8-[(3-Aminopropyl)amino]-6-phenylimidazo[1,2-a]pyrazin-3-yl}-N-cyclopropylbenzamide hydrochloride], the IC50 was determined as 21.1 nM.

`Cn1ccc(CNc2nc(-c3ccccc3)cn3c(-c4ccc(C(=O)NC5CC5)cc4)cnc23)n1` [Example 2-53, N-cyclopropyl-4-(8-{[(1-methyl-1H-pyrazol-3-yl)methyl]amino}-6-phenylimidazo [1,2-a]pyrazin-3-yl)benzamide]: the 50% inhibitory concentration (IC50) stood at 5.6 nM.

Take `COc1ccccc1-c1cn2c(-c3ccc(C(=O)NC4CC4)cc3)cnc2c(NCC(C)C)n1` [Example 1-41, N-cyclopropyl-4-{6-(2-methoxyphenyl)-8-[(2-methylpropyl)amino]imidazo[1,2-a]pyrazin-3-yl}benzamide]: the IC50 was determined as 7.4 nM.

As to `CC(C)CCNc1nc(-c2ccccc2)cn2c(-c3ccc(C(=O)NC4CC4)cc3)cnc12` [Example 2-4, N-cyclopropyl-4-{8-[(3-methylbutyl)amino]-6-phenylimidazo[1,2-a]pyrazin-3-yl}benzamide], the IC50 came out at 3.2 nM.

As to `CC(C)CNc1nc(-c2ccc(C(=O)NC(C)C)c(F)c2)cn2c(-c3ccc(C(=O)NC4CC4)cc3)cnc12` [Example 1-86, 4-{3-[4-(cyclopropyl-carbamoyl)phenyl]-8-[(2-methylpropyl)amino]imidazo[1,2-a]pyrazin-6-yl}-2-fluoro-N-(propan-2-yl)benzamide], the IC50 turned out to be 6.2 nM.

Turning to `O=C(NC1CC1)c1ccc(-c2cnc3c(NCCO)nc(-c4ccccc4)cn23)cc1` [Example 2-1, N-cyclopropyl-4-{8-[(2-hydroxyethyl)amino]-6-phenylimidazo[1,2-a]pyrazin-3-yl}benzamide], the IC50 turned out to be 2.7 nM.

Take `CC(C)(O)CNc1nc(-c2ccccc2CO)cn2c(-c3ccc(C(=O)NC4CC4)c(Cl)c3)cnc12` [Example 1-100, 2-chloro-N-cyclopropyl-4-{6-[2-(hydroxymethyl)phenyl]-8-[(2-hydroxy-2-methylpropyl)amino]imidazo[1,2-a]pyrazin-3-yl}benzamide]: the half-inhibitory concentration (IC50) was 86.5 nM.

Consider `Cc1cn2c(-c3ccc(C(=O)NC4CC4)cc3)cnc2c(NCC(C)C)n1` [Example 1-88, N-cyclopropyl-4-{6-methyl-8-[(2-methyl-propyl)amino]imidazo [1,2-a]pyrazin-3-yl} benzamide], for which the IC50 turned out to be 11.9 nM.

`CC(C)CNc1nc(-c2ccccc2)c(Br)n2c(-c3ccc(C(=O)NC4CC4)cc3)cnc12` [Example 4-1, 4-{5-bromo-8-[(2-methylpropyl)amino]-6-phenylimidazo[1,2-a]pyrazin-3-yl}-N-cyclopropylbenzamide]: the 50% inhibitory concentration (IC50) came out at 26.2 nM.

Take `CC(=O)Nc1ccccc1-c1cn2c(-c3ccc(C(=O)NC4CC4)cc3)cnc2c(NCC(C)C)n1` [Example 1-14, 4-{6-[2-(acetylamino)phenyl]-8-[(2-methyl-propyl)amino]imidazo [1,2-a]pyrazin-3-yl}-N-cyclopropylbenzamide]: the half-inhibitory concentration (IC50) worked out at 11.2 nM.

On to `NCCCCCNc1nc(-c2ccccc2)cn2c(-c3ccc(C(=O)NC4CC4)cc3)cnc12` [Example 2-79, 4-{8-[(5-Aminopentyl)amino]-6-phenylimidazo[1,2-a]pyrazin-3-yl}-N-cyclopropylbenzamide], for which the IC50 came to 3.2 nM.

Take `NCCCCCCNc1nc(-c2ccccc2)cn2c(-c3ccc(C(=O)NC4CC4)cc3)cnc12` [Example 2-84, 4-{8-[(6-Aminohexyl)amino]-6-phenylimidazo[1,2-a]pyrazin-3-yl}-N-cyclopropylbenzamide]: the half-inhibitory concentration (IC50) was determined as 1.6 nM.

On to `CC(C)CNc1nc(-c2cccc(C(=O)NC3CC3)c2)cn2c(-c3ccc(C(=O)NC4CC4)cc3)cnc12` [Example 1-56, N-cyclopropyl-3-{3-[4-(cyclopropylcarbamoyl)phenyl]-8-[(2-methylpropyl)amino]imidazo [1,2-a]pyrazin-6-yl} benzamide], for which the IC50 worked out at 1.6 nM.

With `O=C(NC1CC1)c1ccc(-c2cnc3c(NCCC(F)(F)F)nc(-c4ccccc4)cn23)cc1` [Example 2-43, N-cyclopropyl-4-{6-phenyl-8-[(3,3,3-trifluoropropyl)amino]imidazo[1,2-a]pyrazin-3-yl} benzamide], the IC50 came out at 1.1 nM.

With `CC(C)CNc1nc(-c2cccc(-c3ccccc3)c2)cn2c(-c3ccc(C(=O)NC4CC4)cc3)cnc12` [Example 1-69, 4-{6-(biphenyl-3-yl)-8-[(2-methylpropyl)amino]imidazo[1,2-a]pyrazin-3-yl}-N-cyclopropyl-benzamide], the IC50 turned out to be 19.9 nM.

Turning to `CC(C)CNc1nc(-c2cccc([N+](=O)[O-])c2)cn2c(-c3ccc(C(=O)NC4CC4)cc3)cnc12` [Example 1-2, N-cyclopropyl-4-{8-[(2-methylpropyl)amino]-6-(3-nitrophenyl)imidazo [1,2-a]pyrazin-3-yl} benzamide], the IC50 was determined as 5.5 nM.

`O=C(NC1CC1)c1ccc(-c2cnc3c(NCc4sccc4Cl)nc(-c4ccccc4)cn23)cc1` [Example 2-59, 4-(8-{[(3-chlorothiophen-2-yl)methyl]amino}-6-phenylimidazo [1,2-a]pyrazin-3-yl)-N-cyclopropylbenzamide]: the IC50 came to 6.4 nM.

(Values after patent US20140187548A1, “6 SUBSTITUTED IMIDAZOPYRAZINES FOR USE AS MPS-1 AND TKK INHIBITORS IN THE TREATMENT OF HYPERPROLIFERATIVE DISORDERS” (BAYER INTELLECTUAL PROPERTY GMBH, priority 2010, published 2014).)
